From patent publication US9273006B2, “Anabolic compounds for treating and preventing bone loss diseases” (SYDDANSK UNIVERSITET, priority 2012, dated 2016)
Like-named read-outs stand apart in the source and are kept apart here.

How the values were obtained:
hMSC-TERT [1] = assay: In vitro osteoblast differentiation in OIM (ALP activity, alizarin red, qRT-PCR); format: cell-based, human
Description: (§1) F) H-8 enhances ALP activity of hMSC, in the absence of serum.
Adding H-8 (25 μM) to the osteogenic induction media, during 9-days in vitro hMSC osteogenic differentiation, enhanced expression of osteoblastic markers as shown by qRT-PCR analysis. **P≦0.05, ***P≦0.005 (significant difference as compared to vehicle).
H-8 was added (25 μM) to the OIM at different time points during 12-days period.
(§2) In order to confirm the results obtained from the initial screen, the present inventors incubated hMSC-TERT and primary human bone marrow derived MSC (hBMSC) in osteogenic induction medium (OIM) supplemented with H-8 (dose range 1-30 μM) or vehicle. […] To determine the stage of differentiation at which the effect of H-8 was most apparent, the present inventors added H-8 (25 μM) to the OIM at different time points during 12-days period.

[2] = tested on: primary human bone marrow derived MSC (hBMSC); assay: In vitro osteoblast differentiation in OIM (ALP activity, alizarin red); format: cell-based; conditions: dose range 1-30 μM
Description: as §1, §2

[3] = tested on: human adipose tissue derived MSC (hAT-MSC); assay: In vitro osteoblast differentiation (ALP activity, alizarin red); format: cell-based
hMSC = hMSC survival in vitro, western blot of activated Caspase-3; format: cell-based, human; conditions: 25 μM, during osteoblast differentiation
Description: A) H-8 treatment of hMSC (25 μM) during osteoblast differentiation, decreased apoptosis, as shown by western blot analysis of activated Caspase-3.
To investigate the effect of H-8 on hMSC survival in vitro, activation of Caspase-3 was evaluated, using western blot analysis.

[4] = tested on: hMSC implanted in mouse calvarial defect; assay: hMSC survival in vivo, mouse calvarial defect model; conditions: 4 weeks after implantation of treated hMSC
[5] = tested on: hMSC-TERT implants in SCID/NOD mice; assay: In vivo heterotopic bone formation of hMSC-TERT implanted with HA/TCP
Description: (A) Treatment of hMSC-TERT4 with H-8 (25 μM) for 7 days in vitro enhanced the in vivo heterotopic bone formation ability of the cells. (B) Systemic injection of H-8 at 30 mg/kg/day enhanced the amount of the heterotopic bone formed by hMSC-TERT4 implanted in SCID/NOD mice. (C) Human specific Vimentin staining confirmed that the newly formed heterotopic bone is of human origin. *P≦0.05 (significant difference as compared to vehicle).
To determine the effect of H-8 treatment on the ability of hMSC to form heterotopic bone in vivo, hMSC-TERT were treated with H-8 (25 μM) or vehicle for 7 days, mixed with hydroxyapatite/tricalcium phosphate (HA/TCP) as osteoconductive carrier, and implanted subcutaneously in SCID/NOD mice. […] Human specific vimentin staining confirmed that the newly formed heterotopic bone is of human origin (FIG. 6C).

[6] = Necropsy after systemic H-8 injection; format: in vivo; conditions: systemic injection 5, 15, 30 mg/kg/day for 4 weeks
hMSC-TERT [7] = assay: Adipocyte differentiation (Oil red O, qRT-PCR of adipogenic markers); format: cell-based, human; conditions: 25 μM in adipogenic induction media; Oil red O day 15, qRT-PCR day 10
Description: To determine the effect of H-8 on adipocyte differentiation of hMSC, H-8 was added (25 μM) to the adipogenic induction media (AIM) of hMSC-TERT.

[8] = tested on: human CD14+ mononuclear cells; assay: Osteoclast formation, count of TRAP-positive multinucleated cells; format: cell-based; conditions: 25 μM, day 5 of differentiation
Text: The present inventors determined the effects of H-8 on osteoclast formation in peripheral blood-derived human CD14+ mononuclear cell cultures.

TGFβ signaling in hMSC = assay: TGFβ signaling, qRT-PCR and western blot; format: cell-based, human; conditions: 5 and 15 minutes after treatment
Text: (C): Western blot analysis of p-Smad and p-Akt reveled that the enahcing effect of H-8 on osteoblast differentiation of hMSC is mediated through activation of non-canonical TGFβ signaling. (D): SB431542, a selective inhibitor of TGWU activity abolished the enhanced phosphorylation of Akt and smad2 after H-8 treatment.
To investigate the mechanisms of the enhancing effects of H-8 on osteoblast differentiation of hMSC, the present inventors performed a DNA microarray analysis of hMSC-TERT under osteogenic culture conditions, in the presence or absence of the H-8 (25 μM). […] In order to identify the pathway that is primarily regulated by H-8 treatment, phosphorylation of canonical and non-canonical TGFβ signaling components was evaluated 5 minutes and 15 minutes after H-8 treatment. The inventors also evaluated the effect of TGFβ3 treatment on H-8 induced phosphorylation of Smad2 and Akt. […] This observation further confirms that the enhancing effect of H-8 on osteoblast differentiation of hMSC is mediated through regulation of TGFβ signaling.

hMSC-TERT [9] = conditions: 6 days after induction, hMSC-TERT
protein kinase G (PKG) = biological target: T1, protein kinase G (PKG) (Homo sapiens, UniProt Q13976); conditions: cited from earlier work
T1 sequence (Q13976 1-671): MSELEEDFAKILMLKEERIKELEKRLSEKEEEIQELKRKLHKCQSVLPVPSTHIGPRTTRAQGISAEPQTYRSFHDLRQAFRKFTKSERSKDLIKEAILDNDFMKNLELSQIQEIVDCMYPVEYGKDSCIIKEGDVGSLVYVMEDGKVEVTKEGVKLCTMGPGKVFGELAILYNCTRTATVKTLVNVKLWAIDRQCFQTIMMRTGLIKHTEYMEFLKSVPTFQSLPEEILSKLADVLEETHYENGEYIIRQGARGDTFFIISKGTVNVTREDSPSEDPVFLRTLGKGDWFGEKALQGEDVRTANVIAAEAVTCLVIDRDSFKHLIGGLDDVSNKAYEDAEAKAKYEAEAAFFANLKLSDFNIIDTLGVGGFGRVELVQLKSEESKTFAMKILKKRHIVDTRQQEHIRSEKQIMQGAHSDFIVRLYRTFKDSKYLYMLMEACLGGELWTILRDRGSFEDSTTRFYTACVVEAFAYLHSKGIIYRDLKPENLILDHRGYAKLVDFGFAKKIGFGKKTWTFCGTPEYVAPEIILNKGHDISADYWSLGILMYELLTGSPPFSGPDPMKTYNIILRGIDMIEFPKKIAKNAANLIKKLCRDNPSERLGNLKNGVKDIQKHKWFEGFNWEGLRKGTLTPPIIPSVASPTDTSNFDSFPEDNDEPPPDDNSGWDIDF

protein kinase C(PKC) = conditions: cited from earlier work
[10] = biological target: Myosin Light Chain Kinase (MLCK) (Homo sapiens, UniProt Q15746); conditions: cited from earlier work
osteoclast = conditions: table 1 of Soerensen et al; cited from earlier work

Chain of Myosin Light Chain Kinase (MLCK) (Q15746 whole entry): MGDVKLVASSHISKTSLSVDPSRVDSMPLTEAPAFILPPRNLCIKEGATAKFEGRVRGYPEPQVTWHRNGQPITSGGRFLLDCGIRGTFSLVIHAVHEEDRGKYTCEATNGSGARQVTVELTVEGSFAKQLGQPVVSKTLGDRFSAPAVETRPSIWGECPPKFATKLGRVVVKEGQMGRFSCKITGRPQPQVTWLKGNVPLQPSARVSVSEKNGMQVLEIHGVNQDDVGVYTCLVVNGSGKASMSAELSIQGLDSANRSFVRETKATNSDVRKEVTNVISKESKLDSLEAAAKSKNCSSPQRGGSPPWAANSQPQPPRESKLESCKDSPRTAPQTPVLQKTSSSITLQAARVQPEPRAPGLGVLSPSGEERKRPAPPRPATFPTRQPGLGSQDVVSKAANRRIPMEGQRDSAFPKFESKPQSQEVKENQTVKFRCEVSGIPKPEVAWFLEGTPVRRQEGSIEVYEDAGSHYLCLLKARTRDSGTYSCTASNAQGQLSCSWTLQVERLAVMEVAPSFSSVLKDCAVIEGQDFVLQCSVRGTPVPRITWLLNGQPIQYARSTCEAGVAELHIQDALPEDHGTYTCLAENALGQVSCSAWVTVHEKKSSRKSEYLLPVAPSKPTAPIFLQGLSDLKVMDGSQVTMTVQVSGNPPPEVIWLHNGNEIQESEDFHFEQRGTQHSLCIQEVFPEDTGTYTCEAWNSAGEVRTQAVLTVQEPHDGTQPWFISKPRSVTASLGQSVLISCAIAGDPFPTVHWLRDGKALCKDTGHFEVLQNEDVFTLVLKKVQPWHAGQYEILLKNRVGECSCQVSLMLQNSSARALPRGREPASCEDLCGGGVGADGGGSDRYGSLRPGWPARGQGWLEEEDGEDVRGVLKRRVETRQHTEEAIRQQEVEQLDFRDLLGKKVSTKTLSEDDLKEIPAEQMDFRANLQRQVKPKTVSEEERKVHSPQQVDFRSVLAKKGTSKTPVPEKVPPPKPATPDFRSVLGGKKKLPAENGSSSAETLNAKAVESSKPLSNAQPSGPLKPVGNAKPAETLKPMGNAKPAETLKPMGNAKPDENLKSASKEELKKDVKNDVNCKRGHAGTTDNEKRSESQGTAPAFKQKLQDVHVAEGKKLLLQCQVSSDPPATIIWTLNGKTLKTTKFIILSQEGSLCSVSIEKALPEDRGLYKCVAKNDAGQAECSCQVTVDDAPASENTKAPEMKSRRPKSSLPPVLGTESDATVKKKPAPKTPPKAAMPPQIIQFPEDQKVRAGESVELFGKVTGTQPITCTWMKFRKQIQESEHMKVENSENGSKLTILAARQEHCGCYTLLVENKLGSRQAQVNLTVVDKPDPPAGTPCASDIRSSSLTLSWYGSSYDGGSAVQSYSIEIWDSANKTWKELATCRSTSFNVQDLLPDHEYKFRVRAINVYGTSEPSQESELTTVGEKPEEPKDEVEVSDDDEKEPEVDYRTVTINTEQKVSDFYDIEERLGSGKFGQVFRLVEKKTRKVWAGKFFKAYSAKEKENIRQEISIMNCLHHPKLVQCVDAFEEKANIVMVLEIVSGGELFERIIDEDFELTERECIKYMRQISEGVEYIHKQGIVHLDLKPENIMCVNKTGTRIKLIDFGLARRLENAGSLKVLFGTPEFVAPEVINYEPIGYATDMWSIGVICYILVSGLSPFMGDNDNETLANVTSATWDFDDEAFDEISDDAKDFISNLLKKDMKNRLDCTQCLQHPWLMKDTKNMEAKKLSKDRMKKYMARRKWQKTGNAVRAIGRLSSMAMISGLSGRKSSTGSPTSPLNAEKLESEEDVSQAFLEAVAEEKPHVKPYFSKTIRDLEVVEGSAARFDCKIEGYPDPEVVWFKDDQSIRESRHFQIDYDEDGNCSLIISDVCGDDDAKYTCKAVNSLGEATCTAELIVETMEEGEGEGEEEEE

CNCCNS(=O)(=O)c1cccc2cnccc12 [H-8, N-[2-(methylamino)ethyl]-5-isoquinolinesulfonamide]
stage of differentiation at which H-8 is needed (matrix mineralization) (hMSC-TERT [1]; 25 μM added at different time points during 12-days period): needed during the first 9 days to exert its effects | gene expression of osteogenic markers (qRT-PCR) (hMSC-TERT [1]; 25 μM, 9-days in vitro hMSC osteogenic differentiation): enhanced gene expression of early and late osteogenic markers | ALP enhancing effect in serum free induction media (hMSC-TERT [1]; 25 μM, serum free induction media): persists in the absence of serum | optimal concentration for highest enhancement of osteoblast differentiation of hMSC (hMSC-TERT [1]; based on in vitro studies): 20 to 30 µM | dependence of ALP enhancing effect on differentiation inducers (hMSC-TERT [1]; each component of osteoblastic induction media removed): not dependent on differentiation inducers | ALP activity (hMSC-TERT [1]; hMSC-TERT, OIM, dose range 1-30 μM, day 6, dose-dependent): significantly increased | matrix mineralization (alizarin red staining) (hMSC-TERT [1]; hMSC-TERT, OIM, dose range 1-30 μM, day 12, dose-dependent): significantly increased | ALP activity ([2]; day 6, dose-dependent): significantly increased | matrix mineralization (alizarin red staining) ([2]; day 12, dose-dependent): significantly increased | matrix mineralization (alizarin red staining) ([3]; 25 μM, day 10 of differentiation): enhanced matrix mineralization | ALP activity ([3]; day 6 of osteoblastic differentiation): dose dependent enhancing effect | activated Caspase-3 (western blot), hMSC survival (hMSC): reduced level of activated Caspase-3 | hMSC survival in vivo (luminescent imaging) [4]: increased hMSC survival | heterotopic bone formation, cells pre-treated in vitro ([5]; hMSC-TERT treated 25 μM for 7 days, implanted subcutaneously, histology after 8 weeks): enhanced amount of heterotopic bone formation | heterotopic bone formation, systemic treatment ([5]; intraperitoneally 30 mg/kg/day for 4 weeks after implantation of HA/TCP-hMSC-TERT): increased amount of heterotopic bone formation | necropsy, toxic effects [6]: all tissues looked normal | adipocyte differentiation of hMSC (hMSC-TERT [7]): does not affect adipocyte differentiation | osteoclast formation (TRAP-positive multinucleated cells) [8]: did not affect osteoclast formation | Akt phosphorylation (western blot) (TGFβ signaling in hMSC): enhanced Akt phosphorylation at both 5 and 15 minutes | Smad2 phosphorylation (western blot) (TGFβ signaling in hMSC): enhanced Smad2 phosphorylation was detected only 15 minutes after H-8 treatment | Relative ALP activity (hMSC-TERT [9]; 1 μM inhibitor in osteogenic inducing media): 1.701 | Relative ALP activity (hMSC-TERT [9]; 10 μM inhibitor in osteogenic inducing media): 1.87 | IC50 (protein kinase G (PKG)): 0.48 µM | IC50 (protein kinase C(PKC)): 15 µM | IC50 [10]: 68 µM | osteoclastic acid secretion (osteoclast): no effect on osteoclastic acid secretion
